Patent US6645529B2, “Instant granules and process for their formulation” (Dr. Gergely & Co., priority 2000, dated 2003)

Columns and labels:
bulk density = assay type: physicochemical; conditions: for bulk density (g/100 ml): Table 1, preferred carrier materials; for Bulk density in g/100 ml: Table 3, carrier materials
[1] = dissolving times of different carrier materials; assay type: physicochemical; conditions: 10 g in 100 ml water of 17° C., stirred at 500 rpm, visual
Method: Testing conditions: 10 g of each carrier material was added to 100 ml water of 17° C. in a 400 ml beaker and stirred at 500 rpm by a magnetic stirrer. Dissolution was determined visually.

[2] = listed as mannitol (fine granulated)

bulk density (g/100 ml) (bulk density) | Bulk density in g/100 ml (bulk density) [g/100 ml] | Dissolving time [1] [s] | Bulk density in g/100 ml (bulk density; [2]) [g/100 ml] | Dissolving time [1, 2] [s] | Compound
90 | 90 | 200 | – | – | OC[C@@H](O)[C@@H](O[C@H]1O[C@H](CO)[C@@H](O)[C@H](O)[C@H]1O)[C@H](O)[C@@H](O)CO [hydrogenated maltose]
50 | 45 | 15 | – | – | OC[C@H]1O[C@@](CO)(O[C@H]2O[C@H](CO)[C@@H](O)[C@H](O)[C@H]2O)[C@@H](O)[C@@H]1O [instant sugar]
69 | 69 | 120 | – | – | OC[C@H]1O[C@@H](O[C@H]2[C@H](O)[C@@H](O)C(O)O[C@@H]2CO)[C@H](O)[C@@H](O)[C@H]1O (stereo partly drawn) [lactose]
45 | 45 | 55 | – | – | OC[C@@H](O)[C@@H](O)[C@H](O)[C@H](O)CO [mannitol (spray dried), mannitol]
63 | – | – | 62 | 95 | OC[C@@H](O)[C@@H](O)[C@H](O)[C@H](O)CO [mannitol]
82 | – | – | – | – | O.O=P([O-])(O)O.O=P([O-])(O)O.[Ca+2] [monocalcium phosphate.H2O]
88 | – | – | – | – | OC[C@H]1O[C@@](CO)(O[C@H]2O[C@H](CO)[C@@H](O)[C@H](O)[C@H]2O)[C@@H](O)[C@@H]1O [saccharose (coarse grain), saccharose]
81 | – | – | – | – | OC[C@H]1O[C@@](CO)(O[C@H]2O[C@H](CO)[C@@H](O)[C@H](O)[C@H]2O)[C@@H](O)[C@@H]1O [saccharose (fine grain), saccharose]
45 | 45 | 50 | – | – | OC[C@@H](O)[C@@H](O)[C@H](O)[C@@H](O)CO [sorbitol (spray dried), sorbitol]
58 | 58 | 90 | – | – | OC[C@@H](O)[C@@H](O)[C@H](O)[C@@H](O)CO [sorbitol]
95 | 95 | 85 | – | – | O.O.O=C([O-])CC(O)(CC(=O)[O-])C(=O)[O-].[Na+].[Na+].[Na+] [trisodiumcitrate.2H2O]
